Laboratory results reported in patent US9526737B2, “Oxysterols for activation of hedgehog signaling, osteoinduction, antiadipogenesis, and Wnt signaling” (THE REGENTS OF THE UNIVERSITY OF CALIFORNIA, priority 2007, dated 2016).

Key:
Format in all cases: cell-based
[1] = tested on: hedgehog signaling pathway; test: Hedgehog signaling pathway activation (8X-Gli reporter, Gli 1 and Patched Q-RT-PCR, cyclopamine inhibition); details: M2 cells
Protocol: M2-10B4 bone marrow stromal cells were transfected with an 8XGli luciferase reporter or the empty vector (pGL3b). Cells were subsequently treated with control vehicle, 5 μM Oxy49, or 400 ng/ml recombinant human sonic hedgehog (Shh) as positive control. After 48 hours of treatments, reporter luciferase activity was measured and normalized to Renilla luciferase activity (See FIG. 14). […] M2-10B4 bone marrow stromal cells were transfected with an 8XGli luciferase reporter or the empty vector (pGL3b). Cells were subsequently treated with control vehicle, 5 μM Oxy34, or 400 ng/ml recombinant human sonic hedgehog (Shh) as positive control. After 48 hours of treatments, reporter luciferase activity was measured and normalized to Renilla luciferase activity (See FIG. 15). […] After 48 hours of treatments, mRNA was extracted from cells and analyzed by Q-RT-PCR for expression of hedgehog target genes Gli 1 and Patched (See FIGS. 16A and 16B). […] Luciferase reporter activity using a reporter construct with 8X-Gli binding sites • 2. Q-RT-PCR analysis of the induction of hedgehog pathway target gene expression Gli 1 and Patched • 3.

[2] = tested on: TCF/Lef transcriptional activity; test: TCF/Lef luciferase reporter assay (TBE4-luc); details: M2 cells, 24 hours; 5 μM SS, 200 ng/ml Shh or 40 mM LiCl
Protocol: (§1) M2-10B4 cells at 70% confluence were transfected for 24 hours using FuGENE 6 Transfection Reagent (Roche Applied Science, Indianapolis, Ind.) according to manufacturer's instructions. The wild-type and mutant TCF/LEF binding site driven luciferase constructs (TBE4-luc and TBE4-luc-mut, repectively) were generous gifts from Dr. Baruch Frenkel (University of Southern California, Los Angeles, Calif.), and the Cyclin D1 promoter element-driven luciferase construct (Cyclin D1-luc) was a generous gift from Dr. Fanxin Long (Washington University, St. Louis, Mo.). Firefly luciferase values were normalized to Renilla luciferase activity and pEGFP-NI was used to evaluate transfection efficiency. Cells were then treated for 24, 48, or 72 hours with test agents before measuring luciferase activity using the Dual-Luciferase Reporter 1000 Assay System (Promega, Madison, Wis.) according to the manufacturer's instructions.
M2 cells were transfected with a luciferase reporter driven by 4 wild-type or mutant TCF/Lef DNA binding sites (TBE4-luc and TBE4-luc-mut, respectively) and analyzed for their response to 5 μM SS, 200 ng/ml Shh, 40 mM LiCl, or control vehicle after 24 h of treatment (see FIG. 3A).

[3] = tested on: TCF/Lef transcriptional activity (Cyclin D1 promoter element); test: Cyclin D1 promoter element luciferase reporter assay (Cyclin D1-luc); details: M2 cells, 24 hours; 5 μM SS or 40 mM LiCl
Protocol: as §1
M2 cells were transfected with a luciferase reporter driven by a Cyclin D1 promoter element (Cyclin D1-luc) and analyzed for their response to 5 μM SS, 40 mM LiCl, or control vehicle after 24 h of treatment (see FIG. 3B).

Axin2 mRNA expression = test: Q-RT-PCR for Axin2 mRNA expression; details: M2 cells, 8 and 48 hours; 5 μM SS, 200 ng/ml Shh, 40 mM LiCl
Protocol: (§2) Total RNA was extracted with the RNA isolation kit from Stratagene (La Jolla, Calif.) according to the manufacturer's instructions. RNA was DNase-treated using the DNA-free kit from Ambion, Inc. (Austin, Tex.). 3 μg of RNA was reverse-transcribed using reverse transcriptase from Stratagene (La Jolla, Calif.) to make single stranded cDNA. The cDNAs were mixed with Qi SYBR Green Supermix from Bio-Rad Laboratories (Hercules, Calif.) for quantitative RT-PCR using a Bio-Rad I-cycler IQ quantitative thermocycler. All PCR samples were prepared in triplicate or quadruplicate. Each sample was added to duplicate wells of a 96-well plate. After 40 cycles of PCR, melt curves were analyzed in order to ensure primer specificity, and the identity of all PCR products were verified by sequencing and comparing with the complete mRNA sequence obtained from PubMed's GenBank. Fold changes in gene expression were calculated using the ΔΔCt method (14). All primers were designed using the Beacon Designer software from Bio-Rad Laboratories (Hercules, Calif.). […]
M2 cells were treated with 5 μM SS, 200 ng/ml Shh, 40 mM LiCl, or control vehicle for 8 or 48 h. RNA was isolated and analyzed by Q-RT-PCR for Axing expression (See FIGS. 4A and 4B).

[4] = tested on: Cyclin D1 mRNA expression; test: Q-RT-PCR for Cyclin D1 mRNA expression; details: M2 cells
Protocol: as §2
M2 cells were treated with 5 μM SS, 200 ng/ml Shh, or control vehicle for 8 or 48 h. RNA was isolated and analyzed by Q-RT-PCR for Cyclin D1 expression (See FIGS. 4C and 4D).

Row | SMILES | Inhibition of oxysterol-induced hedgehog pathway activation [1] | TCF/Lef reporter activity compared to untreated control cells [2] | Cyclin D1 promoter element TCF/Lef reporter activity [3] | Axin2 mRNA expression (Axin2 mRNA expression) | Cyclin D1 mRNA expression ([4]; 8 hours) | Cyclin D1 mRNA expression ([4]; 48 hours)
1 | O=c1cc(N2CCOCC2)oc2c(-c3ccccc3)cccc12 [LY, LY 294002] | did not inhibit |  |  |  |  | 
2 | [Cl-].[Li+] [LiCl, lithium chloride] |  | significantly induced | activated | induced its expression at both time points | did not induce | inhibited its baseline expression
